Values of other authors in patent US20050065129A1, “2-Alkylidene-19-nor-vitamin D derivatives for the treatment of frailty, muscle damage or sarcopenia” (Pfizer Inc, priority 2003, published 2005).

What was measured:
[1] = tested on: Serum Calcium (Bone Calcium Mobilization); conditions: chronic 7 days, rats; for bone calcium mobilization activity (in words): 130 and 260 pmol/day
[2] = tested on: Intestinal Calcium Transport; conditions: chronic 7 days, 130 and/or 260 pmol/day, rats

| SMILES | bone calcium mobilization activity (in words) [1] | intestinal calcium transport activity (in words) [2] | bone calcium mobilization (serum calcium) activity relative to 1,25-(OH)2D3 (native hormone) ([1]; estimate) |
| --- | --- | --- | --- |
| C=C1[C@H](O)CC(=C/C=C2\CCC[C@]3(C)[C@@H]([C@@H](C)CCCC(C)(C)O)CC[C@@H]23)C[C@H]1O [2-Methylene-19-Nor-20S-1,25-(OH)2D3, (20S)-1α,25-dihydroxy-2-methylene-19-nor-vitamin D3] | most potent compound tested | no significant change |  |
| C=C1/C(=C\C=C2/CCC[C@]3(C)[C@@H]([C@H](C)CCCC(C)(C)O)CC[C@@H]23)C[C@@H](O)C[C@@H]1O [1,25-(OH)2D3, 1,25-dihydroxyvitamin D3, reference compound] |  | expected elevation |  |
| C=C1[C@H](O)CC(=C/C=C2\CCC[C@]3(C)[C@@H]([C@H](C)CCCC(C)(C)O)CC[C@@H]23)C[C@H]1O [2-Methylene-19-Nor-1,25-(OH)2D3, 1α,25-dihydroxy-2-methylene-19-nor-vitamin D3] | extremely strong bone calcium mobilization | no intestinal calcium transport activity | 10-100 times |
